Measurements: patent US20110311511A1, “CRYSTAL STRUCTURE OF PfA-M1 AND THE PfA-M1 Co4 COMPLEX” (priority 2008, published 2011)

Tests used:
[1] = biological target: recombinant P. falciparum M1 aminopeptidase (rPfA-M1); assay: Enzymatic analysis: aminopeptidase activity with fluorogenic peptide substrates (NHMec release) and inhibition; format: biochemical, Plasmodium falciparum; settings: for Km / kcat: substrate of rPfA-M1, pH 7.5
Experimental: Aminopeptidase activity was determined by measuring the release of the fluorogenic leaving group, 7-amino-4-methyl-coumarin (NHMec) from the fluorogenic peptide substrates H-Leu-NHMec, H-Ala-NHMec, H-Arg-NHMec, H-Met-NHMec, H-Phe-NHMec, H-Gly-NHMec, H-Val-NHMec, H-Ile-NHMec and H-Pro-NHMec. Reactions were carried out in 96-well microtitre plates (200 μl total volume, 30 min, 37° C.) using a spectrofluorimeter (Bio-Tek KC4) with excitation at 370 nm and emission at 460 nm. […] […] Inhibition experiments were carried out in the presence of substrate.

P. c. chabaudi = settings: cited from earlier work
PfA-M17 = biological target: T1, PfA-M17 (Plasmodium falciparum, UniProt Q8IL11); settings: cited from earlier work
T1 sequence (Q8IL11 84-605 limits assumed): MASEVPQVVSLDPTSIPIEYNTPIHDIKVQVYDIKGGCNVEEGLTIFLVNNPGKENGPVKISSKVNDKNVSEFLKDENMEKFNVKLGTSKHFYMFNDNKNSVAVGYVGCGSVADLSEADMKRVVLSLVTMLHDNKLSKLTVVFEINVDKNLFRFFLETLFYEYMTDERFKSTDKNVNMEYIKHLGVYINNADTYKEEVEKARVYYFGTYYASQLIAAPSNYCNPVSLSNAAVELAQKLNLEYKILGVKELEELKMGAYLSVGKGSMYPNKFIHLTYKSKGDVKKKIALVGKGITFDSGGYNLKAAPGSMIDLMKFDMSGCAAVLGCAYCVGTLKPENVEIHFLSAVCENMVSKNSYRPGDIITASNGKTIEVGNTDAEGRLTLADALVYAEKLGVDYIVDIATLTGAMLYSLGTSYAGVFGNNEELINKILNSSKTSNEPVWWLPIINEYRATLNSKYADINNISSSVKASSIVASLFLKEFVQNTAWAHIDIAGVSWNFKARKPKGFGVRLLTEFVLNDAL

Molecule | Ki ([1]; inhibition of rPfA-M1, in the presence of substrate) | reduction of murine infection of P. c. chabaudi compared to controls (P. c. chabaudi) | inhibition of PfA-M17 (PfA-M17) | Km [1] | kcat [1]
NC(CCc1ccccc1)P(=O)(O)CC(Cc1ccccc1)C(=O)O (stereo not shown) [Co4, hPheP[CH2]Phe] | 78.3 nM | 92% | inhibits | – | –
CCC(C)C(N)C(=O)Nc1ccc2c(C)cc(=O)oc2c1 (stereo not shown) [H-Ile-NHmec] | – | – | – | 1710 µM | 0.040 s⁻¹
Cc1cc(=O)oc2cc(NC(=O)[C@@H]3CCCN3)ccc12 [H-Pro-NHmec] | – | – | – | 734 µM | 0.0032 s⁻¹
Cc1cc(=O)oc2cc(NC(=O)[C@@H](N)C(C)C)ccc12 [H-Val-NHmec] | – | – | – | 1070 µM | 0.036 s⁻¹
H-Ala-NHmec | – | – | – | 889 µM | 2.04 s⁻¹
H-Arg-NHmec | – | – | – | 717 µM | 1.07 s⁻¹
H-Gly-NHmec | – | – | – | 349 µM | 0.116 s⁻¹
H-Leu-NHmec | – | – | – | 330 µM | 1.52 s⁻¹
H-Phe-NHmec | – | – | – | 195 µM | 0.18 s⁻¹
